Laboratory results taken from the supplement of paper PMC10307832.

Key:
Experiment in all cases: relative viability (nuclei count vs DMSO), 5 days (fraction); higher = more cells survive
AZ505 + Foretinib = compound: C1CCC(CC1)N(CCNCCC2=C3C(=C(C=C2)O)NC(=O)CO3)C(=O)CCNCCC4=CC(=C(C=C4)Cl)Cl [AZ505] + COc1cc2c(Oc3ccc(NC(=O)C4(C(=O)Nc5ccc(F)cc5)CC4)cc3F)ccnc2cc1OCCCN1CCOCC1 [Foretinib] (partner 0.25 µM)
Outline: (§1)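 One day after seeding in 1536-well plates, lung cancer cell lines were dosed by pin tool. Dosing was either single-drug or a fixed anchor-drug dose plus five library-drug doses (not always all listed) in √10 steps. After 5 days, nuclei were stained in one fix-and-stain step and counted on 4× images, and relative viability is the nuclei count of treated wells over that of vehicle wells, given as the median of duplicate plates.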

Dactolisib + Pictilisib = compound: Cn1c(=O)n(-c2ccc(C(C)(C)C#N)cc2)c2c3cc(-c4cnc5ccccc5c4)ccc3ncc21 [Dactolisib] + CS(=O)(=O)N1CCN(Cc2cc3nc(-c4cccc5[nH]ncc45)nc(N4CCOCC4)c3s2)CC1 [Pictilisib] (partner 1 µM)
Outline: as §1

AZ505 + Crizotinib = compound: C1CCC(CC1)N(CCNCCC2=C3C(=C(C=C2)O)NC(=O)CO3)C(=O)CCNCCC4=CC(=C(C=C4)Cl)Cl [AZ505] + C[C@@H](Oc1cc(-c2cnn(C3CCNCC3)c2)cnc1N)c1c(Cl)ccc(F)c1Cl [Crizotinib] (partner 1 µM)
Outline: as §1

AZ505 + Linsitinib = compound: C1CCC(CC1)N(CCNCCC2=C3C(=C(C=C2)O)NC(=O)CO3)C(=O)CCNCCC4=CC(=C(C=C4)Cl)Cl [AZ505] + C[C@]1(O)C[C@@H](c2nc(-c3ccc4ccc(-c5ccccc5)nc4c3)c3c(N)nccn32)C1 [Linsitinib] (partner 1 µM)
Outline: as §1

Row | Cell Line | relative viability (AZ505 + Foretinib; first compound 0.08 µM) | relative viability (AZ505 + Foretinib; first compound 0.253 µM) | relative viability (AZ505 + Foretinib; first compound 0.8 µM) | relative viability (AZ505 + Foretinib; first compound 2.53 µM) | relative viability (AZ505 + Foretinib; first compound 8 µM) | relative viability (Dactolisib + Pictilisib; first compound 0.002 µM) | relative viability (Dactolisib + Pictilisib; first compound 0.006325 µM) | relative viability (Dactolisib + Pictilisib; first compound 0.02 µM) | relative viability (Dactolisib + Pictilisib; first compound 0.06325 µM) | relative viability (Dactolisib + Pictilisib; first compound 0.2 µM) | relative viability (AZ505 + Crizotinib; first compound 0.08 µM) | relative viability (AZ505 + Crizotinib; first compound 0.253 µM) | relative viability (AZ505 + Crizotinib; first compound 0.8 µM) | relative viability (AZ505 + Crizotinib; first compound 2.53 µM) | relative viability (AZ505 + Crizotinib; first compound 8 µM) | relative viability (AZ505 + Linsitinib; first compound 0.08 µM) | relative viability (AZ505 + Linsitinib; first compound 0.253 µM) | relative viability (AZ505 + Linsitinib; first compound 0.8 µM) | relative viability (AZ505 + Linsitinib; first compound 2.53 µM) | relative viability (AZ505 + Linsitinib; first compound 8 µM)
1 | NCI-H2342 | 1.07 | 1.02 | 1.02 | 1.14 | 1.14 |  |  |  |  |  |  |  |  |  |  |  |  |  |  | 
2 | HCC-15 | 0.911 | 1.04 | 1.03 | 1.02 | 1.02 | 0.762 | 0.746 | 0.707 | 0.392 | 0.343 | 0.791 | 0.908 | 0.772 | 0.844 | 0.823 | 0.877 | 0.909 | 0.842 | 0.837 | 0.919
3 | A-427 | 1.05 | 1.04 | 0.997 | 1.1 | 1.13 | 0.648 | 0.674 | 0.718 | 0.49 | 0.498 | 0.771 | 0.829 | 0.766 | 0.837 | 0.944 | 1.13 | 1.08 | 1.09 | 1.11 | 1.09
4 | NCI-H2228 | 0.644 | 0.799 | 0.809 | 0.823 | 0.665 | 0.355 | 0.291 | 0.248 | 0.173 | 0.222 | 0.373 | 0.518 | 0.369 | 0.467 | 0.342 | 0.418 | 0.651 | 0.53 | 0.549 | 0.49
5 | NCI-H1734 | 0.785 | 0.811 | 0.754 | 0.751 | 0.829 | 0.468 | 0.395 | 0.39 | 0.26 | 0.216 | 0.66 | 0.657 | 0.591 | 0.623 | 0.658 | 0.654 | 0.908 | 0.801 | 0.949 | 0.883
6 | SK-LU-1 | 0.542 | 0.58 | 0.612 | 0.515 | 0.51 | 0.48 | 0.547 | 0.484 | 0.432 | 0.211 | 0.608 | 0.731 | 0.649 | 0.664 | 0.714 | 0.45 | 0.592 | 0.798 | 0.588 | 0.765
7 | PC-14 | 0.922 | 0.927 | 1.03 | 1.01 | 0.937 | 0.9 | 0.586 | 0.412 | 0.196 | 0.0762 | 0.787 | 0.805 | 0.934 | 0.846 | 0.95 | 0.88 | 0.948 | 0.922 | 0.881 | 0.951
8 | NCI-H1915 | 1.06 | 1.11 | 1 | 0.977 | 1.1 | 1.01 | 0.952 | 0.944 | 0.513 | 0.483 | 0.881 | 0.948 | 0.887 | 0.827 | 0.969 | 1.14 | 1.1 | 1.03 | 0.942 | 1.04
9 | NCI-H1666 | 0.946 | 1.01 | 0.917 | 0.9 | 0.95 | 0.417 | 0.405 | 0.438 | 0.383 | 0.366 | 0.903 | 1.03 | 0.96 | 0.997 | 0.954 | 0.835 | 0.718 | 0.849 | 0.726 | 0.941
10 | HCC-366 | 0.926 | 0.878 | 0.889 | 0.852 | 0.924 | 0.201 | 0.147 | 0.124 | 0.0657 | 0.102 | 0.418 | 0.365 | 0.551 | 0.396 | 0.534 | 0.534 | 0.552 | 0.672 | 0.599 | 0.678
11 | SK-MES-1 | 0.765 | 0.774 | 0.824 | 0.782 | 0.738 | 0.391 | 0.356 | 0.297 | 0.337 | 0.182 | 0.901 | 0.967 | 0.947 | 0.904 | 0.916 | 0.89 | 0.922 | 0.97 | 0.879 | 1.03
12 | NCI-H661 | 1 | 1.02 | 0.981 | 0.984 | 0.999 | 0.468 | 0.406 | 0.389 | 0.377 | 0.251 |  | 0.941 |  | 0.977 | 0.942 | 0.583 | 0.567 | 0.544 | 0.491 | 0.646
13 | PC-3 [JPC-3] | 0.945 | 0.936 | 0.923 | 0.991 | 1.04 | 0.78 | 0.784 | 0.696 | 0.697 | 0.572 | 0.885 | 0.979 | 0.916 | 0.94 | 1.03 | 0.923 | 0.935 | 0.938 | 0.862 | 0.947
14 | NCI-H1623 | 0.76 | 0.781 | 0.834 | 0.79 | 0.99 |  |  |  |  |  |  |  |  |  |  |  |  |  |  | 
15 | Calu-6 | 0.814 | 0.901 | 0.819 | 0.799 | 0.892 | 0.935 | 0.855 | 0.729 | 0.414 | 0.352 | 0.735 | 0.806 | 0.785 | 0.589 | 0.748 | 0.872 | 0.929 | 0.851 | 0.92 | 0.956
16 | LC-2-ad | 0.84 | 0.941 | 0.831 | 0.814 | 0.993 | 0.291 |  | 0.428 | 0.389 | 0.262 | 0.432 | 0.475 | 0.438 | 0.472 | 0.427 | 0.819 | 0.901 | 0.844 | 0.883 | 0.845
17 | CAL-12T | 1.03 | 1.11 | 1.18 | 1.22 | 1.36 | 0.407 | 0.408 | 0.358 | 0.251 | 0.254 | 0.599 | 0.753 | 0.535 | 0.684 | 0.563 | 0.72 | 0.901 | 0.684 | 0.748 | 0.9
